From paper PMC6366094, “Suppression of Myeloid Cell Arginase Activity leads to Therapeutic Response in a NSCLC Mouse Model by Activating Anti-Tumor Immunity” (Journal for Immunotherapy of Cancer, 2019)

Key:
[1] = target: T1, human ARG2 (arginase 2) (Homo sapiens, UniProt P78540); experiment: enzymatic arginase inhibition assay (data not shown); type: biochemical
T1 sequence (P78540 23-354): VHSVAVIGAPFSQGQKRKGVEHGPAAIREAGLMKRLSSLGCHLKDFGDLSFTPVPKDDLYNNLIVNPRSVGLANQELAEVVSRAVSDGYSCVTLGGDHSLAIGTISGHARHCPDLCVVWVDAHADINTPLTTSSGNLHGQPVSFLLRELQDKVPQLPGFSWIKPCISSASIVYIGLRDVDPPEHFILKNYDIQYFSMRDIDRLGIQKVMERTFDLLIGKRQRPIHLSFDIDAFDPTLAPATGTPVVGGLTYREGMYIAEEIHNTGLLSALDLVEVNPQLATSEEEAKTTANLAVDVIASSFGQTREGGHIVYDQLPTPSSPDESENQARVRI

[2] = target: T2, human ARG1 (arginase 1) (Homo sapiens, UniProt P05089); experiment: as above; type: biochemical
T2 sequence (P05089 1-322): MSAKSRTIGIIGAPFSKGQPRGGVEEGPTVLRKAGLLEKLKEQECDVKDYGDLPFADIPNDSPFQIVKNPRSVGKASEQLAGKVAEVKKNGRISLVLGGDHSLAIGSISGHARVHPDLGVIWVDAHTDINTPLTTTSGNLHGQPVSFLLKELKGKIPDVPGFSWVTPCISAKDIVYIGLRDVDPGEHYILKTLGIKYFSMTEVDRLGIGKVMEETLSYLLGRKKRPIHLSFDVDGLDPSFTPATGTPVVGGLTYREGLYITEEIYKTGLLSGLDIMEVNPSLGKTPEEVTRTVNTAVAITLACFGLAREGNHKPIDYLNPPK

`N[C@](CCCCB(O)O)(CCN1CCCCC1)C(=O)O` [compound 9, (R)-2-amino-6-borono-2-(2-(piperidin-1-yl)ethyl) hexanoic acid] was tested, and the IC50 [1] was 2.7 µM and the IC50 [2] was 1.1 µM.
